How the values were obtained:
M. smithii = assay: Lovastatin gavage in M. smithii colonized high-fat diet rats, qPCR of bowel segments; assay type: in vivo, Sprague-Dawley rats; settings: 1.5 mg/rat gavaged daily for 10 days
Method: The rats were assessed for increased M. smithii by qPCR before and after the diet, and then divided into 3 groups. Group 1 was given lovastatin in its lactone form, Group 2 was given lovastatin hydroxy acid (each 1.5 mg/rat), and Group 3 was gavaged with a placebo. Each group was gavaged daily for 10 days. Three day stool collections were performed to assess average stool wet weight and daily variability prior to commencing the high fat diet, after 7 weeks of high-fat diet, and the final days of the lovastatin gavage (still on high-fat diet). On day 10 of the gavage, rats were euthanized and DNA was extracted from contents of ligated bowel segments (duodenum, jejunum, ileum, cecum and left colon). qPCR was performed using primers for total luminal bacteria and M. smithii.

[1] = pylorus-ligated rats, within 30 min; cited from earlier work
[2] = after oral administration; cited from earlier work
[3] = test system: human and rat fecal bacterial enzyme fractions; settings: over a 12 h period; cited from earlier work
[4] = Binary stress testing of 1:1 lovastatin/excipient mixtures, HPLC; settings: range of temperature and humidity conditions, 7 days
Method: The compatibility of lovastatin drug substance with formulation excipients was evaluated in binary stress testing studies where 1:1 mixtures of lovastatin and each excipient were stored for 7 days under different conditions of temperature and relative humidity (RH). Samples were analyzed by HPLC (based on USP methods) at day 0 and day 7.

SMILES	M. smithii levels in the colon (M. smithii)	fraction of an intragastric dose that exited the gastric juice [1]	ratio of M. smithii to total bacteria in the ileum (M. smithii; versus placebo)	pre-portal hydrolysis in vivo [2]	loss of lovastatin lactone [3]	stability in binary stress testing [4]
CC[C@H](C)C(=O)O[C@H]1C[C@@H](C)C=C2C=C[C@H](C)[C@H](CC[C@@H](O)C[C@@H](O)CC(=O)O)[C@H]21 [lovastatin β-hydroxyacid]	unaffected	~30%				
CC[C@H](C)C(=O)O[C@H]1C[C@@H](C)C=C2C=C[C@H](C)[C@H](CC[C@@H]3C[C@@H](O)CC(=O)O3)[C@H]21 [Lovastatin]	unaffected	~30%	reduced	~10%	8-19%	stable

Source: patent US10668159B2, “Anti-methanogenic compositions and uses thereof” (Cedars-Sinai Medical Center, priority 2014, dated 2020)
